From US10456441B2, “Augmenting the immune response by promoting cell death of immune cells” (The University of Vermont and State Agricultural College, priority 2014, dated 2019)
Blank lines part the entries; values can stand above or below the molecule they belong to.

Legend:
[1] = tested on: γδ T cells; experiment: Mixed cultures of γδ T cells and BMDC: γδ T cell activation (IL-17, IFN-γ, CD25); assay type: cell-based, mice
Description: Cells were washed three times and then rocked with goat anti-rat conjugated magnetic beads at a 10:1 ratio of beads to cell at 4° C. for 45 min. Magnetic depletion was used to remove bead-bound cells. […] After 2 days, cells were removed from anti-TCR-γδ stimulation, supplied with fresh medium plus IL-2, and returned to culture at a density of 0.3×10^6 cells/ml. Cells were counted daily and supplied with fresh media containing 50 units/ml IL-2. […] In addition, in some experiments freshly isolated splenic γδ T cells were prepared using anti-γδ-coated magnetic beads (Miltenyi Biotec) and magnet purification.
(§1) The preparation of bone marrow-derived dendritic cells (BMDC) was done according to the method of Lutz et al. (26) using GM-CSF ([…] PeproTech, Rocky Hill N.J.) or GM-CSF plus IL-4 (10 μg/ml, PeproTech). Cells were used on day 7.
Day 7 γδ T cells and BMDC were cultured either individually or together at a 1:1 ratio (10^6 cells/ml each). To some cultures the following reagents were added: a sonicate of Borrelia burgdorferi (10 μg/ml), zVAD-fmk (MP Biomedical, Santa Ana Calif.) at the doses indicated, necrostatin (50 μM, R&D Systems, Minneapolis, Minn.), anti-TNF-α (10 μg/ml, Calbiochem, Darnstadt, Germany),, anti-IL-1 Receptor antagonist, Anakinra (200 ng/ml, Amgen, Thousand Oaks, Calif.), anti-IL-12 (10 μg/ml, BioLegend San Diego, Calif.), anti-IL-18 (10 μg/ml, MBL, Woburn Mass.), or rat IgG (10 μg/ml Jackson Immunoresearch, West Grove Pa.). Transwell assays were performed using 1×10^6 γδ T cells in 1 ml of complete medium+IL-2 placed in the lower chamber, with 5×10^5 DC in 100 μl placed in the upper chamber. […]
Cytokine levels of IFN-γ, IL-1β, IL-12p40, IL-12p70, IL-17, and TNF-α were detected using the Bio-Plex, MilliPlex, or Luminex immunoassay (Bio-Rad; Millipore-EMD; R&D Systems, Minneapolis, Minn.) according to the manufacturer's protocol. Briefly, samples were run undiluted or diluted 1:10 in RPMI complete media. 50 μl of the magnetic bead working solution was added to each well, then 50 μl of appropriate samples or standards were then added to wells and incubated at room temperature for 30-120 min at 800 rpm on an IKA MS 3 digital shaker. After three washes with 100 μl Bio-Plex wash buffer, incubation with 25 μl of detection antibody solution was done at room temperature for 30-60 min on the shaker. Following another set of three washes, 50 μl of streptavidin-phycoerythrin (PE) in assay buffer was added to each well and incubated as described for the previous step. After an additional three washes, 125 μl of assay buffer was added. Sample data was analyzed with Bio-Plex Manager software.
The following monoclonal antibodies to murine cell surface molecules were purchased from BioLegend: PE-conjugated anti-CD25, APC-conjugated anti-TCR-γδ, and TNF-α neutralizing antibody. Rat IgG was purchased from Jackson Immunoresearch (West Grove, Pa.). For direct staining, single cell suspensions (1×10^6 total cells per staining condition) were washed with cold (4° C.) PBS containing 1% (w/v) BSA fraction V (Sigma) (PBS/1% BSA), incubated with unconjugated rat IgG (50 μg/ml) for 15 min at 4° C., washed again, and then incubated with the appropriate antibodies in PBS/1% BSA. After washing, the cells were fixed with freshly made 1% (v/v) methanol-free formaldehyde (Ted Pella Inc., Redding, Calif.) in PBS/1% BSA.

[2] = molecular target: T1, c-FLIP, caspase-8 (Mus musculus, UniProt O89110); experiment: c-FLIP and active caspases in BMDC (biotin-VAD precipitation, immunoblot); assay type: cell-based, mice
T1 construct: endogenous in cells; host or cells: bone marrow-derived dendritic cells (BMDC), day 7, grown in GM-CSF with or without IL-4; whole cell lysates and biotin-VAD precipitates
T1 sequence (O89110 219-480): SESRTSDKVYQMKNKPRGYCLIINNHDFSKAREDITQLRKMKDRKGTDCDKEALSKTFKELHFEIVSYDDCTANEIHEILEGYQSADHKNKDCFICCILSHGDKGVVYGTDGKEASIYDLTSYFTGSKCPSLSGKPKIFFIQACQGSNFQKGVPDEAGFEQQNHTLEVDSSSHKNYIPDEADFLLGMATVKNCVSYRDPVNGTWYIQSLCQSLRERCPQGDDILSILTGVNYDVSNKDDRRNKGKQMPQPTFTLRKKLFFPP
T1 sequence (O35732 whole entry partner): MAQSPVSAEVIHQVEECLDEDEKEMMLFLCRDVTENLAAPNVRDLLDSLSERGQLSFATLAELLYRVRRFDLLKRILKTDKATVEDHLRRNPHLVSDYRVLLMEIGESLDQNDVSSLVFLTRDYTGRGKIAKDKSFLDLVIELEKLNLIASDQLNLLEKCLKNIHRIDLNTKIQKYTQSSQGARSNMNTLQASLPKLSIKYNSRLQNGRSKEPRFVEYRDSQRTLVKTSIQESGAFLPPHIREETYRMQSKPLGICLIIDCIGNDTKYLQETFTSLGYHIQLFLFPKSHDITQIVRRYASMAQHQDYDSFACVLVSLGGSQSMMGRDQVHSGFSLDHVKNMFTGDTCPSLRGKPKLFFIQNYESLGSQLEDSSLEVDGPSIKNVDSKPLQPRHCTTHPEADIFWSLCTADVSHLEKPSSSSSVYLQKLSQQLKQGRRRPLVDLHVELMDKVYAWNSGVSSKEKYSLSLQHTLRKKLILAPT
Description: as §1
Day 7 BMDC were lysed in Tris-buffer containing Complete Protease Inhibitor (Roche), 0.2% NP-40 (Roche), and biotin-VAD-fmk (10 μM, MP Biomedicals, Santa Ana, Calif.). Insoluble cell fragments were removed by centrifugation, and the protein concentration of the resulting whole cell lysates was determined by Bradford assay (BioRad, Hercules, Calif.). Whole cell lysates (30 μg per lane) were separated by SDS-PAGE. Precipitation of active caspases was performed by rocking 600 μg of whole cell lysates initially with sepharose 4B beads (Sigma) at 4° C. for 2 hours to remove nonspecific binding of proteins to the beads, followed by overnight rocking incubation with streptavidin-conjugated sepharose beads (Invitrogen) at 4° C. Release of biotin-VAD-fmk-labeled caspases from the streptavidin beads was achieved by heating to 95° C. for 10 min in Laemmli buffer. After gel electrophoresis, proteins were transferred to PVDF membranes (0.2 μm pore size, Bio-Rad), and immunoblots were performed using antibodies (1 μg/ml) against caspase-3, caspase-8 (both Cell Signaling, Danvers, Mass.), caspase-9 (Stressgen, Farmingdale, N.Y.), and RIPK1 (BD Biosciences).

[3] = tested on: human DC; experiment: Cell death of human DC from peripheral blood monocytes; assay type: cell-based; conditions: addition of IL-4 to GM-CSF culture
Description: (§2) Human monocytes were obtained as CD14^− cells by magnetic bead purification (Miltenyi Biotech, Auburn, Calif.) from peripheral blood of healthy volunteers. Myeloid DC were prepared by culture of monocytes in AIM V media plus 10% fetal calf serum (HyClone) with 800 U/ml of granulocyte-macrophage colony-stimulating factor (GM-CSF), (BioLegend, San Diego, Calif.) without or with 500 U/ml IL-4 (BioLegend). Cell death was examined by terminal deoxynucleotidyl transferase dUTP nick end labeling (TUNEL). Briefly, cells were stained for expression of cell surface molecules, and then fixed with 1% methanol-free formaldehyde followed by 70% ethanol. After washing, the TUNEL reaction was performed by incubating cells in 50 μl of reaction mix containing 10 units of terminal deoxribosyl transferase (TdT), 2.5 mM cobalt chloride in 1× TdT buffer, and 0.2 pmol/μl of FITC-dUTP (Roche, Indianapolis, Ind.) at 37° C. for 1 hour. The cells were washed twice and fixed in 1% methanol-free formaldehyde. Murine thymocytes were included as a positive control for apoptotic cells. Flow cytometry was performed on an LSRII (BD Biosciences, San Jose, Calif.) calibrated with compensation beads (BD Biosciences). Analysis was performed using FlowJo software (Tree Star, Inc., Ashland, Oreg.).

[4] = tested on: BMDC; experiment: Cell death of BMDC by TUNEL assay; assay type: cell-based, mice; conditions: GM-CSF-cultured BMDC, zVAD 50 μM + Necrostatin 50 μM
Description: as §1
as §2, with “Cell” for “Human monocytes were obtained as CD14^− cells by magnetic bead purification (Miltenyi Biotech, Auburn, Calif.) from peripheral blood of healthy volunteers. Myeloid DC were prepared by culture of monocytes in AIM V media plus 10% fetal calf serum (HyClone) with 800 U/ml of granulocyte-macrophage colony-stimulating factor (GM-CSF), (BioLegend, San Diego, Calif.) without or with 500 U/ml IL-4 (BioLegend). Cell”

[5] = human trials; cited from earlier work
[6] = exogenous TNF-α (2.5 μg/ml) added, absence of Borrelia
[7] = γδ T cells + BMDC + B. burgdorferi, zVAD+Necrostatin, 20 h

Molecule: TNF-α
production of IFNγ by γδ T cells [1, 6]: did not augment production
production of IL-17 by γδ T cells [1, 6]: did not augment production

level of c-FLIP ([2]; BMDC grown in GM-CSF+IL-4 vs GM-CSF, 7 days): considerably increased
levels of total cellular caspase-8, caspase-9, or caspase-3 ([2]; whole cell lysates, BMDC grown in GM-CSF or GM-CSF+IL-4): no difference
Molecule: IL-4: cytokine added with GM-CSF during generation of BMDC; upregulates c-FLIP
level of active caspase-8 ([2]; BMDC grown in GM-CSF+IL-4 vs GM-CSF, bVAD precipitates): increase in the level of active caspase-8
zVAD-induced death of human DC [3]: blocked
ability of BMDC to activate Borrelia-stimulated γδ T cells ([1]; BMDC grown with GM-CSF+IL-4, absence or presence of zVAD): much less able to activate

Molecule: CN1C(=O)C(Cc2c[nH]c3ccccc23)NC1=S (centres unmarked) [Necrostatin]
production of these cytokines (TNF-α, IL-17, IFN-γ); toxicity check ([1]; Necrostatin with Borrelia in the absence of zVAD): did not block production
TNF-α production by zVAD-treated BMDC [1, 7]: reversed
production of IFN-γ by γδ T cells [1, 7]: reversed
production of IL-17 by γδ T cells [1, 7]: reversed
cell death of zVAD-treated BMDC [4]: rescued them from cell death

Molecule: C[C@H](NC(=O)C(=O)Nc1ccccc1C(C)(C)C)C(=O)N[C@@H](CC(=O)O)C(=O)COc1c(F)c(F)cc(F)c1F [IDN-6556]
preserving liver function during hepatitis C virus infection [5]: showing promise
serious side-effects [5]: without exhibiting serious side-effects
